Among the data in US9636336B2, “Aminoester derivatives” (CHIESI FARMACEUTICI S.p.A., priority 2015, dated 2017) are IC50 values, retold here.

Assay [1] has as its target Human M3 receptor membranes (Homo sapiens (Human), UniProt P20309). Kind of assay: M3 Receptor radioligand binding assay. As for the experimental part:
M3 Receptor Radioligand Binding Assay:
The assay is carried out in 96-well polypropylene plates in a volume of 250 μl. […] The final assay concentration of DMSO is 0.5% (v/v). The plates are sealed and incubated for 2 h at room temperature on an orbital shaker (slow speed). Membranes are harvested onto 96-well unifilter GF/C filter plates pre-treated with 0.5% polyethyleneimine (v/v), using a filter manifold, washed four times with 200 μl of assay buffer. The plates are dried before addition of 50 μl of microscint-0, sealed then read in a Trilux Microbeta scintillation counter. IC50 values are determined from competition curves using a non-linear curve fitting program. Ki values are calculated from IC50 values by the Cheng and Prusoff equation.

Assay [2] concerns the target Human recombinant PDE4B2 (Homo sapiens (Human), UniProt Q07343). The assay can be described thus: PDE4B2 HTRF assay. The assay is classed as biochemical. As to the method: PDE4B2 activity is detected using the LANCE Ultra cAMP homogeneous time resolved fluorescence resonance energy transfer (TR-FRET) assay from Perkin Elmer. The assay is based on the competition between the europium (Eu) chelate-labeled cAMP tracer and sample cAMP for binding sites on cAMP-specific monoclonal antibodies (mAb) labelled with the ULight™ dye. The assay is carried out in 384-well low volume plates in a volume of 10 μl. Human recombinant PDE4B2 (80 pM) is incubated for 2 h with 3 nM cAMP in buffer containing 1×HBSS, 5 mM HEPES, 3 mM MgCl2, 0.1% BSA, pH 7.4 with or without test compounds. The enzymatic reactions are efficiently stopped by the addition of 500 μM IBMX present in the combined Stop/Detection buffer containing europium (Eu) chelate-labeled cAMP tracer and cAMP-specific monoclonal antibodies (mAb) labelled with the ULight™ dye. […] IC50 values are determined from competition curves using a non-linear curve fitting program.
(In general: In TR-FRET formats the signal depends on donor and acceptor labels being close together.)

[3] abbreviates: M3 Receptor radioligand binding assay, read-out: M3 IC50 activity.
[4] abbreviates: PDE4B2 HTRF assay, read-out: PDE4B2 IC50 activity.

Read-outs that look alike come from different tables or passages of the source. Bounds are passed on as bounds.

Chain of Human recombinant PDE4B2 (Q07343 other isoform, or with tags, fused parts or gaps): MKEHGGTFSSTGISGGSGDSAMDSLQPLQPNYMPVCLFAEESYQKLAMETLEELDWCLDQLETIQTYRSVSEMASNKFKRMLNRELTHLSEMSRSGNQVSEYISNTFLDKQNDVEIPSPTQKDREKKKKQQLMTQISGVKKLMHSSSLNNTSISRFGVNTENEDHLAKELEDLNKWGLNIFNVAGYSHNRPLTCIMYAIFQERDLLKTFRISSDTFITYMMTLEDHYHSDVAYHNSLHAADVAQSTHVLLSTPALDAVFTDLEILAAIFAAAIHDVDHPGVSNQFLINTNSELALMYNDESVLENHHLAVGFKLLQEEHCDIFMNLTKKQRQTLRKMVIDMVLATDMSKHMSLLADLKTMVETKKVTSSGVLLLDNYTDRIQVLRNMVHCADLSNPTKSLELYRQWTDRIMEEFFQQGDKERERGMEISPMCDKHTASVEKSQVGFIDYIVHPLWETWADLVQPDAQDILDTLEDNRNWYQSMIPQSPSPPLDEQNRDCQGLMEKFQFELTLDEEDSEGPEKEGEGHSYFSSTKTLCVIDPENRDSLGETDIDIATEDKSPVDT
Chain of Human M3 receptor membranes (P20309 whole entry): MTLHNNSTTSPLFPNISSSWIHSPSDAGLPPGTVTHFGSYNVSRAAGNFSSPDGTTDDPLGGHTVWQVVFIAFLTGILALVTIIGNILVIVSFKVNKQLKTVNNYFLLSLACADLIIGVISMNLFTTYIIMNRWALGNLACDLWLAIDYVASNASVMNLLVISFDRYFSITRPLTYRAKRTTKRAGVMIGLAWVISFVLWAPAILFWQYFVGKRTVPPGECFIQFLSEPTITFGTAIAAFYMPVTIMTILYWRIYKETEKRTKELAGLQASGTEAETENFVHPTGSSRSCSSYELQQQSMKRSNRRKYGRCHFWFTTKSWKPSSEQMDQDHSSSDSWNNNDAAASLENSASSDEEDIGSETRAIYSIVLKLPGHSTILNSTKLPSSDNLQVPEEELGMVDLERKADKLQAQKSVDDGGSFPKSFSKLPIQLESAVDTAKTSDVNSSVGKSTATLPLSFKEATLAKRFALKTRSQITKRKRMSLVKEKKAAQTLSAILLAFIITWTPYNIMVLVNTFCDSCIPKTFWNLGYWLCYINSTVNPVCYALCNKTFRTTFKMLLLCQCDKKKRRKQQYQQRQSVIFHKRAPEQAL

A word on the IC50: it is the concentration that inhibits the measured activity by half. With `COc1ccc([C@H](Cc2c(Cl)c[n+]([O-])cc2Cl)OC(=O)c2ccc(CNC(C(=O)OCC3CCN(C)CC3)c3cccc(O)c3)s2)cc1OC` (stereo partly drawn) [Example 41, [(1S)-2-(3,5-dichloro-1-oxido-pyridin-1-ium-4-yl)-1-(3,4-dimethoxyphenyl)ethyl]5-[[[1-(3-hydroxyphenyl)-2-[(1-methyl-4-piperidyl)methoxy]-2-oxo-ethyl]amino]methyl]thiophene-2-carboxylate], the IC50 in assay [1] (setting [3]) was in the range of 1 to 10 nM.
As for `COc1ccc([C@H](Cc2c(Cl)c[n+]([O-])cc2Cl)OC(=O)c2ccc(CNC(C(=O)OCC3CCN(C)CC3)c3ccccc3OC)s2)cc1OC` (stereo partly shown) [Example 118], in assay [2] (setting [4]), the IC50 is below 1 nM.
For the compound `CN1CCC(COC(=O)C(NCc2ccc(C(=O)O[C@@H](Cc3c(Cl)c[n+]([O-])cc3Cl)c3ccc(OC(F)F)c(OCC4CC4)c3)s2)c2cccc(O)c2)CC1` (mixture of isomers) [Example 46, [(1S)-1-[3-(cyclopropylmethoxy)-4-(difluoromethoxy)phenyl]-2-(3,5-dichloro-1-oxido-pyridin-1-ium-4-yl)ethyl]5-[[[1-(3-hydroxyphenyl)-2-[(1-methyl-4-piperidyl)methoxy]-2-oxo-ethyl]amino]methyl]thiophene-2-carboxylate], the IC50 in assay [2] (setting [4]) and in assay [1] (setting [3]) was 1 to 10 nM throughout.
As to `COc1ccc([C@H](Cc2c(Cl)c[n+]([O-])cc2Cl)OC(=O)c2ccc(CNC(C(=O)OCC3CCN(C)CC3)C3CCCCC3)s2)cc1OC` (stereo partly drawn) [Example 9, [(1S)-2-(3,5-dichloro-1-oxido-pyridin-1-ium-4-yl)-1-(3,4-dimethoxyphenyl)ethyl]5-[[[1-cyclohexyl-2-[(1-methyl-4-piperidyl)methoxy]-2-oxo-ethyl]amino]methyl]thiophene-2-carboxylate], the IC50 was 1 to 10 nM in assay [2] (read-out: PDE4B2 IC50 activity) and 10 to 100 nM in assay [1] (setting [3]).
Regarding `COc1ccc([C@H](Cc2c(Cl)c[n+]([O-])cc2Cl)OC(=O)c2ccc(CNC(C(=O)OCC3(F)CCN(C)CC3)c3ccccc3)s2)cc1OC` (stereo partly drawn) [Example 3, [(1S)-2-(3,5-dichloro-1-oxido-pyridin-1-ium-4-yl)-1-(3,4-dimethoxyphenyl)ethyl] 5-[[[2-[(4-fluoro-1-methyl-4-piperidyl)methoxy]-2-oxo-1-phenyl-ethyl]amino]methyl]thiophene-2-carboxylate], the IC50 in assay [2] (setting [4]) was in the range of 1 to 10 nM.
For the compound `COc1ccc(C(Cc2c(Cl)c[n+]([O-])cc2Cl)OC(=O)c2ccc(CNC(C(=O)OCC3CCN(C)CC3)c3cccc(O)c3)s2)cc1OCC1CC1` (stereo not shown) [Example 48, [1-[3-(cyclopropylmethoxy)-4-methoxy-phenyl]-2-(3,5-dichloro-1-oxido-pyridin-1-ium-4-yl)ethyl]5-[[[1-(3-hydroxyphenyl)-2-[(1-methyl-4-piperidyl)methoxy]-2-oxo-ethyl]amino]methyl]thiophene-2-carboxylate], in assay [1] (setting [3]), the IC50 was in the range of 10 to 100 nM.
With `COc1ccc([C@H](Cc2c(Cl)c[n+]([O-])cc2Cl)OC(=O)c2ccc(CNC(C(=O)OCC3C[C@H]4CC[C@@H](C3)N4C)c3ccccc3)s2)cc1OC` (stereo partly drawn) [Example 114, [(1S)-2-(3,5-dichloro-1-oxido-pyridin-1-ium-4-yl)-1-(3,4-dimethoxyphenyl)ethyl] 5-[[[2-[[(1R,5S)-8-methyl-8-azabicyclo[3.2.1]octan-3-yl]methoxy]-2-oxo-1-phenyl-ethyl]amino]methyl]thiophene-2-carboxylate], the IC50 in assay [2] fell in the range of 1 to 10 nM; in assay [1], 10 to 100 nM.
Take `COc1ccc([C@H](Cc2c(Cl)c[n+]([O-])cc2Cl)OC(=O)c2ccc(CNC(C(=O)OCC3CN(C)C3)c3ccccc3)s2)cc1OC` (stereo partly drawn) [Example 25, [(1S)-2-(3,5-dichloro-1-oxido-pyridin-1-ium-4-yl)-1-(3,4-dimethoxyphenyl)ethyl] 5-[[[2-[(1-methylazetidin-3-yl)methoxy]-2-oxo-1-phenyl-ethyl]amino]methyl]thiophene-2-carboxylate]: the IC50 in assay [2] (setting [4]) and in assay [1] (setting [3]) was 1 to 10 nM in each case.
Turning to `CCOc1cc(C(Cc2c(Cl)c[n+]([O-])cc2Cl)OC(=O)c2ccc(CNC(C(=O)OCC3CCN(C)CC3)c3cccc(O)c3)s2)ccc1OC` (stereo not shown) [Example 120], in assay [2] (setting [4]), the IC50 was below 1 nM.
Turning to `COc1ccc(C(Cc2c(Cl)c[n+]([O-])cc2Cl)OC(=O)c2ccc(CNC(C(=O)OCC3CCN(C)CC3)c3cccc(O)c3)s2)cc1OCC1CC1` (stereo not shown) [Example 47, [1-[3-(cyclopropylmethoxy)-4-methoxy-phenyl]-2-(3,5-dichloro-1-oxido-pyridin-1-ium-4-yl)ethyl]5-[[[1-(3-hydroxyphenyl)-2-[(1-methyl-4-piperidyl)methoxy]-2-oxo-ethyl]amino]methyl]thiophene-2-carboxylate], the IC50 in assay [2] (setting [4]) and in assay [1] (setting [3]) was 1 to 10 nM in each case.
Turning to `COc1ccc([C@H](Cc2c(Cl)c[n+]([O-])cc2Cl)OC(=O)c2ccc(CNC(CO)(C(=O)OC[C@@H]3CCN(C)C3)c3ccccc3)s2)cc1OC` (stereo partly drawn) [Example 116, [(1S)-2-(3,5-dichloro-1-oxido-pyridin-1-ium-4-yl)-1-(3,4-dimethoxyphenyl)ethyl] 5-[[[1-(hydroxymethyl)-2-[[(3R)-1-methylpyrrolidin-3-yl]methoxy]-2-oxo-1-phenyl-ethyl]amino]methyl]thiophene-2-carboxylate], in assay [2] (setting [4]), the IC50 is 1 to 10 nM.
In the case of `COCCOc1cc([C@H](Cc2c(Cl)c[n+]([O-])cc2Cl)OC(=O)c2ccc(CNC(C(=O)OCC3CCN(C)CC3)c3ccccc3)s2)ccc1OC(F)F` (stereo partly drawn) [Example 113, [(1S)-2-(3,5-dichloro-1-oxido-pyridin-1-ium-4-yl)-1-[4-(difluoromethoxy)-3-(2-methoxyethoxy)phenyl]ethyl] 5-[[[2-[(1-methyl-4-piperidyl)methoxy]-2-oxo-1-phenyl-ethyl]amino]methyl]thiophene-2-carboxylate], the IC50 in assay [2] (setting [4]) and in assay [1] (setting [3]) was 1 to 10 nM each time.
Consider `COc1ccc([C@H](Cc2c(Cl)c[n+]([O-])cc2Cl)OC(=O)c2ccc(CNC(C(=O)OCCN3CCCC3)c3ccccc3)s2)cc1OC` (stereo partly drawn) [Example 21, [(1S)-2-(3,5-dichloro-1-oxido-pyridin-1-ium-4-yl)-1-(3,4-dimethoxyphenyl)ethyl] 5-[[[2-oxo-1-phenyl-2-(2-pyrrolidin-1-ylethoxy)ethyl]amino]methyl]thiophene-2-carboxylate], for which, in assay [2] (setting [4]), the IC50 lay in the range of 1 to 10 nM.
Turning to `COc1ccc([C@H](Cc2c(Cl)c[n+]([O-])cc2Cl)OC(=O)c2ccc(CNC(C(=O)OC[C@H]3CCCN(C)C3)c3ccccc3)s2)cc1OC` (stereo partly drawn) [Example 26, [(1S)-2-(3,5-dichloro-1-oxido-pyridin-1-ium-4-yl)-1-(3,4-dimethoxyphenyl)ethyl] 5-[[[2-[[(3S)-1-methyl-3-piperidyl]methoxy]-2-oxo-1-phenyl-ethyl]amino]methyl]thiophene-2-carboxylate], the IC50 in assay [1] (setting [3]) fell in the range of 1 to 10 nM.
On to `CCN1CCC(COC(=O)C(NCc2ccc(C(=O)O[C@@H](Cc3c(Cl)c[n+]([O-])cc3Cl)c3ccc(OC)c(OC)c3)s2)c2ccccc2)CC1` (stereo partly shown) [Example 19], for which the IC50 in assay [2] (setting [4]) is below 1 nM.
For `COc1ccc([C@H](Cc2c(Cl)c[n+]([O-])cc2Cl)OC(=O)c2ccc(CNC(C(=O)OC[C@@H]3CCCN(C)C3)c3ccccc3)s2)cc1OC` (stereo partly drawn) [Example 50, [(1S)-2-(3,5-dichloro-1-oxido-pyridin-1-ium-4-yl)-1-(3,4-dimethoxyphenyl)ethyl]5-[[[2-[[(3R)-1-methyl-3-piperidyl]methoxy]-2-oxo-1-phenyl-ethyl]amino]methyl]thiophene-2-carboxylate], the IC50 in assay [1] (setting [3]) lay within 1 to 10 nM.
The same measure, in the same setting: in the case of `COc1ccc(C(Cc2c(Cl)c[n+]([O-])cc2Cl)OC(=O)c2ccc(CNC(C(=O)OCC3CCN(C)CC3)c3ccccc3)s2)cc1OC1CCCC1` (stereo not shown) [Example 6, [1-[3-(cyclopentoxy)-4-methoxy-phenyl]-2-(3,5-dichloro-1-oxido-pyridin-1-ium-4-yl)ethyl] 5-[[[2-[(1-methyl-4-piperidyl)methoxy]-2-oxo-1-phenyl-ethyl]amino]methyl]thiophene-2-carboxylate] it was 1 to 10 nM.
Same read-out and setting: for `COc1ccc([C@H](Cc2c(Cl)c[n+]([O-])cc2Cl)OC(=O)c2ccc(CNC(C(=O)OC[C@H]3CCCCN3C)c3ccccc3)s2)cc1OC` (stereo partly drawn) [Example 30, [(1S)-2-(3,5-dichloro-1-oxido-pyridin-1-ium-4-yl)-1-(3,4-dimethoxyphenyl)ethyl] 5-[[[2-[[(2R)-1-methyl-2-piperidyl]methoxy]-2-oxo-1-phenyl-ethyl]amino]methyl]thiophene-2-carboxylate] the value was 10 to 100 nM; for `COc1ccc([C@H](Cc2c(Cl)c[n+]([O-])cc2Cl)OC(=O)c2ccc(CNC(C)(C(=O)OCC3CCN(C)CC3)c3ccccc3)s2)cc1OC` (stereo partly drawn) [Example 34, [(1S)-2-(3,5-dichloro-1-oxido-pyridin-1-ium-4-yl)-1-(3,4-dimethoxyphenyl)ethyl] 5-[[[1-methyl-2-[(1-methyl-4-piperidyl)methoxy]-2-oxo-1-phenyl-ethyl]amino]methyl]thiophene-2-carboxylate], 1 to 10 nM.
